Data as given in patent US20250215008A1, “PREPARATION AND USE OF QUINAZOLINONE DERIVATIVE AS KINASE INHIBITOR” (Haisco Pharmaceutical Group Co., Ltd., priority 2022, published 2025).
Where two headings read alike, the source gives them in different places.

Columns and labels:
[1] = tested on: A375 cells; assay: A375 cell proliferation inhibition; format: cell-based; conditions: read-out: IC50/nM, inhibitory activity on A375 cells
Procedure: A375 cells (ATCC, CRL-1619) were cultured in DMEM complete medium (+10% FBS) in a CO2 incubator at 37° C. for 48 h. The cells were trypsinized and counted, and then the density was adjusted to 1.67×10^4 cells/mL. 90 μL (1500 cells) of cells were inoculated into each well of a 96-well transparent bottom plate, and the plate was transferred to a CO2 incubator and the cells were cultured overnight at 37° C. After the cells were incubated overnight, 10 μL of the diluted compound (final concentration starting from 10 μM, 3-fold dilution, 11 concentrations) was added to each well using a multi-channel pipette. The positive control was a serum-free medium containing DMSO. After mixing evenly, the cells were placed in a CO2 incubator at 37° C. for 72 h. After the incubation, the CellCounting-Lite®2.0 kit detection solution (Vazyme, DD1101-03) was taken out and returned to room temperature. 100 μL of CellCounting-Lite2.0 detection solution was added to each well, the plate was sealed with a sealing film, and the plate was placed on a shaker for shaking for 15 min (the whole process should be kept away from light). The Luminescence module of the microplate reader (BMG LRBTECH) was used to detect the fluorescence signal value LUM of each well. The formula
[formula] • was used to calculate the inhibition rate of the compound. The Graphpad software log (inhibitor) vs. response—Variable slope (four parameters) equation was used to perform fitting analysis and calculate the IC50 value of the sample. The ordinate of the data is the percentage of inhibition rate, and the abscissa is the logarithm of the sample concentration (Log10).

[2] = Mouse pharmacokinetic test; format: in vivo, ICR mice; conditions: for Kp: brain/plasma, read-out: brain/plasma ratio; for Vd: read-out: Vdss
Procedure: • 1.1 Experimental animals: male ICR mice, 20-25 g, 12 mice/compound, purchased from Chengdu Ddossy Experimental Animals Co., Ltd. • 1.2 Experimental design: on the day of the test, 12 ICR mice were randomly grouped according to their body weights. The animals were fasted with water available for 12 to 14 h one day before the administration and were fed 4 h after the administration.
Before and after administration, 0.06 mL of blood was taken from the orbit under isoflurane anesthesia and placed in an EDTAK2 centrifuge tube for centrifugation at 5000 rpm at 4° C. for 10 min, followed by plasma collection. The blood collection time points for the intravenous administration group and intragastric administration group were 0, 5 min, 15 min, 30 min, 1 h, 2 h, 4 h, 7 h and 24 h. Before analysis and detection, all samples were stored at −80° C., and a quantitative analysis of samples was performed using LC-MS/MS.

[3] = Beagle dog pharmacokinetic test; format: in vivo, beagle dogs; conditions: for F: beagle dog
Procedure: • Experimental animals: male beagle dogs, about 8-11 kg, 6 beagle dogs/compound, purchased from Beijing Marshall Biotechnology Co., Ltd. • Experimental method: on the day of the experiment, 6 beagle dogs were randomly grouped according to their body weights. The animals were fasted with water available for 12 to 14 h one day before the administration and were fed 4 h after the administration. Administration was performed as per Table 1.
(DMA: dimethylacetamide; Solutol: polyethylene glycol-15-hydroxystearate; Saline: physiological saline; MC: Methylcellulose solution) Before and after the administration, 1 ml of blood was taken from the jugular veins or limb veins, and placed in an EDTAK2 centrifuge tube. Centrifugation was performed at 5000 rpm at 4° C. for 10 min, and plasma was collected. The blood collection time points for the intravenous group and intragastric group were both 0 min, 5 min, 15 min, 30 min, 1 h, 2 h, 4 h, 6 h, 8 h, 10 h, 12 h, 24 h, 48 h, and 72 h. Before analysis and detection, all samples were stored at −80° C. The samples were analyzed quantitatively by LC-MS/MS.

[4] = Rat pharmacokinetic test; format: in vivo, SD rats
Procedure: • 5.1 Experimental animals: male SD rats, about 220 g, 6-8 weeks old, 6 rats/compound, purchased from Chengdu Ddossy Experimental Animals Co., Ltd. • 5.2 Experimental design: on the day of the experiment, 6 SD rats were randomly grouped according to their body weights; the animals were fasted with water available for 12 to 14 h one day before the administration and were fed 4 h after the administration.
Before and after the administration, 0.1 ml of blood was taken from the orbit of the animals under isoflurane anesthesia and placed in an EDTAK2 centrifuge tube. The blood was centrifuged at 5000 rpm and 4° C. for 10 min to collect plasma. Blood sampling time points for the intravenous administration group: 0, 5 min, 15 min, 30 min, 1 h, 2 h, 4 h, 6 h, 8 h, and 24 h; blood sampling time points for the intragastric administration group: 0, 5 min, 15 min, 30 min, 1 h, 2 h, 4 h, 6 h, 8 h and 24 h. Before analysis and detection, all samples were stored at −80° C.

[5] = male, ICR, po, mouse, i.g. 10 mg/kg
[6] = male, ICR, iv, mouse plasma, i.v. 2.5 mg/kg
[7] = male, ICR, iv, mouse plasma, i.v. 2.5 mg/kg, read-out: AUC0-t
[8] = male, ICR, po, mouse plasma, i.g. 10 mg/kg
[9] = male, ICR, po, mouse plasma, i.g. 10 mg/kg, read-out: AUC0-t
[10] = beagle dog plasma, i.v. 0.5 mg/kg
[11] = rat plasma, intragastric administration 10 mg/kg
[12] = rat plasma, intravenous administration 2.5 mg/kg

Row | IC50 ([1]; 72 h) [nM] | IC50 ([1]; Homo sapiens, A-375, 72 h) [nM] | Kp [2, 5] | clearance [2, 6] [mL/min/kg] | half-life [2, 6] [h] | AUC(0-t) [2, 7] [µg·h/mL] | Vd [2, 6] [L/kg] | half-life [2, 8] [h] | AUC(0-t) [2, 9] [µg·h/mL] | F ([2]; mouse, i.g. 10 mg/kg) [%] | SMILES | also measured
1 | ≤ 10 |  |  |  |  |  |  |  |  |  | N#Cc1c(NS(=O)(=O)N2CC3(CCC3(F)F)C2)ccc(F)c1Oc1ccc2ncn(CC(F)F)c(=O)c2c1 [Compound 42] | 
2 | ≤ 10 |  |  |  |  |  |  |  |  | 87.9 | Cc1cnc2c3cc(Oc4c(F)ccc(NS(=O)(=O)N5CC6(CCC6)C5)c4C#N)ccc3ncn12 [Compound 44] | AUC(0-t) ([2]; mouse plasma, i.g. 10 mg/kg): 442.783 µg·h/mL; T1/2 ([2]; mouse plasma, i.g. 10 mg/kg): 14.2 h; AUC(0-t) ([2]; mouse plasma, i.v. 2.5 mg/kg): 125.977 µg·h/mL; CL ([2]; mouse plasma, i.v. 2.5 mg/kg): 0.335 mL/min/kg; T1/2 ([2]; mouse plasma, i.v. 2.5 mg/kg): 7.5 h; Vdss ([2]; mouse plasma, i.v. 2.5 mg/kg): 0.135 L/kg; brain/plasma ratio ([2]; mouse, i.g. 10 mg/kg): 0.0162
3 | ≤ 10 |  |  |  |  |  |  |  |  |  | N#Cc1c(NS(=O)(=O)N2CC3(CCC3)C2)cc(F)c(F)c1Oc1ccc2ncn3ccnc3c2c1 [Compound 46] | 
4 | ≤ 10 |  |  |  |  |  |  |  |  |  | N#Cc1c(NS(=O)(=O)N2CC3(CC3)C2)ccc(F)c1Oc1ccc2ncn(CCF)c(=O)c2c1 [Compound 47] | AUC(0-t) [4, 11]: 4256.852 µg·h/mL; T1/2 [4, 11]: 60.6 h; AUC(0-t) [4, 12]: 1156.844 µg·h/mL; CL [4, 12]: 0.036 mL/min/kg; T1/2 [4, 12]: 50.9 h; Vdss [4, 12]: 0.156 L/kg; F ([4]; rat, intragastric administration 10 mg/kg): 92%
5 | ≤ 10 |  |  |  |  |  |  |  |  |  | N#Cc1c(NS(=O)(=O)N2CC3(CC3)C2)ccc(F)c1Oc1ccc2ncn3ccnc3c2c1 [Compound 49] | 
6 | ≤ 10 |  |  |  |  |  |  |  |  |  | N#Cc1c(NS(=O)(=O)N2CC3(CC3)C2)cc(F)c(F)c1Oc1ccc2ncn(CCF)c(=O)c2c1 [Compound 50] | 
7 | ≤ 10 |  |  |  |  |  |  |  |  |  | N#Cc1c(NS(=O)(=O)N2CC[C@@H](F)C2)cc(F)c(F)c1Oc1ccc2ncn(CCF)c(=O)c2c1 [Compound 51] | 

The next lines start with the compound.

Row | SMILES | IC50 ([1]; 72 h) [nM] | IC50 ([1]; Homo sapiens, A-375, 72 h) [nM] | Kp [2, 5] | clearance [2, 6] [mL/min/kg] | half-life [2, 6] [h] | AUC(0-t) [2, 7] [µg·h/mL] | Vd [2, 6] [L/kg] | half-life [2, 8] [h] | AUC(0-t) [2, 9] [µg·h/mL] | F ([2]; mouse, i.g. 10 mg/kg) [%] | also measured
8 | N#Cc1c(NS(=O)(=O)N2CC3(CCC3F)C2)ccc(F)c1Oc1ccc2ncn(CC(F)F)c(=O)c2c1 (single isomer, unassigned) [Compound 40] | ≤ 10 |  |  |  |  |  |  |  |  |  | 
9 | COn1cnc2ccc(Oc3c(F)ccc(NS(=O)(=O)N4CC[C@@H](F)C4)c3C#N)cc2c1=O [Compound 4] |  | ≤ 10 | 0.053 | 0.37 | 5.27 | 107 | 0.147 | 4.02 | 282 |  | 
10 | Cn1cnc2ccc(Oc3c(F)ccc(NS(=O)(=O)N4CC5(CC5)C4)c3C#N)cc2c1=O [Compound 5] |  | ≤ 10 | 0.0181 | 0.0627 | 30.2 | 290 | 0.159 | 19.2 | 1080 | 93.6 | 
11 | COn1cnc2ccc(Oc3c(F)ccc(NS(=O)(=O)N4CC5(CCC5)C4)c3C#N)cc2c1=O [Compound 7] |  |  | 0.0425 | 0.144 | 9.79 | 240 | 0.111 | 13.7 | 792 | 92.6 | 
12 | COn1cnc2ccc(Oc3c(F)ccc(NS(=O)(=O)N4CC5(CC5)C4)c3C#N)cc2c1=O [Compound 8] |  |  | 0.0173 | 0.147 | 8.59 | 247 | 0.0941 | 12.9 | 1300 | ≥98 | 
13 | N#Cc1c(NS(=O)(=O)N2CC3(CCC3)C2)ccc(F)c1Oc1ccc2ncn(CC(F)F)c(=O)c2c1 [Compound 10] |  | ≤ 10 | 0.0107 | 0.117 | 12 | 272 | 0.111 | 11.8 | 914 | 83.9 | F ([3]; i.g. 3 mg/kg): 79.7%; clearance ([3]; male, iv, beagle dog plasma, i.v. 0.5 mg/kg): 0.425 mL/min/kg; AUC(0-t) ([3]; male, iv, beagle dog plasma, i.v. 0.5 mg/kg, read-out: AUC0-t): 40.9 µg·h/mL; Vd ([3]; male, iv, beagle dog plasma, i.v. 0.5 mg/kg, read-out: Vdss): 0.155 L/kg; AUC(0-t) ([3]; male, po, beagle dog plasma, i.g. 3 mg/kg, read-out: AUC0-t): 97.8 µg·h/mL
14 | Cn1cnc2ccc(Oc3c(F)ccc(NS(=O)(=O)N4CC(CF)C4)c3C#N)cc2c1=O [Compound 14] |  | ≤ 10 |  |  |  |  |  |  |  |  | 
15 | Cn1cnc2ccc(Oc3c(F)ccc(NS(=O)(=O)N4CCC5CC54)c3C#N)cc2c1=O (centres unmarked) [Compound 17] |  | ≤ 10 |  |  |  |  |  |  |  |  | 
16 | N#Cc1c(NS(=O)(=O)N2CC3(CCC3)C2)ccc(F)c1Oc1ccc2ncn3ccnc3c2c1 [Compound 22] |  | ≤ 10 |  |  |  |  |  |  |  |  | 
17 | N#Cc1c(NS(=O)(=O)N2CC3(CCC3)C2)ccc(F)c1Oc1ccc2ncn(CCF)c(=O)c2c1 [Compound 26] |  | ≤ 10 | 0.0179 | 0.119 | 12.8 | 266 | 0.114 | 8.68 | 832 | 78.1 | 
18 | N#Cc1c(NS(=O)(=O)N2CC3(CCC3)C2)ccc(F)c1Oc1ccc2ncn(C3COC3)c(=O)c2c1 [Compound 33] | ≤ 10 |  |  |  |  |  |  |  |  |  | 
19 | N#Cc1c(NS(=O)(=O)N2CC3(CCC3)C2)cc(F)c(F)c1Oc1ccc2ncn(CCF)c(=O)c2c1 [Compound 39] | ≤ 10 |  |  |  |  |  |  |  |  |  | AUC(0-t) ([3]; beagle dog plasma, i.g. 3 mg/kg): 84.281 µg·h/mL; AUC(0-t) [3, 10]: 31.095 µg·h/mL; CL [3, 10]: 0.541 mL/min/kg; Vdss [3, 10]: 0.08 L/kg; F ([3]; i.g. 3 mg/kg): 90.3%
